Among the test systems are HL-60; RPMI-8226; NCI-H460; NCI-H226; A549; 786-0; K562; OVCAR-3; SN12C; OVCAR-4; NCI-H522; EKVX; UACC-257; U-251; SK-OV-3; CCRF-CEM.
Assay in all cases: inhibition of tumour cell growth, NCI panel, 48 h

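Tested at 5 concentrations; 48 h exposure; 96-well plates; endpoints linearly interpolated, else capped at highest concentration. GI50 is the concentration that inhibits growth by half.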 The source made the active and inactive calls. Rule as the data show it: active = GI50 up to about 1.1 µM and inactive = higher.

On to `O=c1c2ccccc2[nH]c(=S)n1-c1ccc(Br)cc1`, for which the GI50 in the experiment with HL-60 was > 100 µM (inactive); in the experiment with RPMI-8226 it was 40.1 µM (inactive); in the experiment with NCI-H460 it was 42.9 µM (inactive); with NCI-H226, > 100 µM (inactive); with A549, 33.3 µM (inactive); in the experiment on 786-0, 80.7 µM (inactive). Besides, the GI50 was 43 µM (inactive) with K562; 45.1 µM (inactive) in the experiment with OVCAR-3; > 100 µM (inactive) in the experiment with SN12C; 44.8 µM (inactive) in the experiment with OVCAR-4; 43.1 µM (inactive) in the experiment on NCI-H522; > 100 µM (inactive) with EKVX. Also, the GI50 with UACC-257 and in the experiment on U-251 was > 100 µM (inactive) throughout.
On to `O=c1c2cccnc2ncn1CCCN1CCOCC1`, for which the GI50 in the experiment with SK-OV-3, with CCRF-CEM, in the experiment with NCI-H460, in the experiment on NCI-H226, in the experiment on A549 and with 786-0 was > 100 µM (inactive) each time. In addition, the GI50 in the experiment on K562, with OVCAR-3, with SN12C, with OVCAR-4, in the experiment with NCI-H522 and in the experiment on EKVX was > 100 µM (inactive) each time. Besides, in the experiment on U-251, the GI50 is > 100 µM (inactive).
Regarding `c1ccc2c(c1)Cc1c(Cc3csc4ccccc34)ccc3cccc-2c13`, the GI50 with HL-60, with RPMI-8226, in the experiment with CCRF-CEM, in the experiment on NCI-H460, in the experiment with A549 and with 786-0 was > 100 µM (inactive) throughout. The GI50 is 45.9 µM (inactive) in the experiment on K562; > 100 µM (inactive) in the experiment with OVCAR-3; > 100 µM (inactive) with SN12C; 54 µM (inactive) in the experiment with OVCAR-4; 41.3 µM (inactive) in the experiment with NCI-H522; > 100 µM (inactive) in the experiment with EKVX. In addition, the GI50 with UACC-257 and in the experiment on U-251 was > 100 µM (inactive) in each case.
`CN(C)CCn1c2c3ccccc3ccc2c2oc(=O)c3ccccc3c21`: the GI50 in the experiment on SK-OV-3 was 0.895 µM (active); in the experiment with HL-60 it was > 100 µM (inactive); in the experiment with RPMI-8226, 4.35 µM (inactive); in the experiment on CCRF-CEM it was 4.26 µM (inactive); with NCI-H460 it was 2.79 µM (inactive); in the experiment on A549, 3.88 µM (inactive). The GI50 with 786-0 was 2.36 µM (inactive); in the experiment on K562, 4.48 µM (inactive); in the experiment on OVCAR-3, 4.4 µM (inactive); in the experiment on OVCAR-4, 6.44 µM (inactive); in the experiment on NCI-H522, 9.46 µM (inactive); with EKVX it was 12.6 µM (inactive). Moreover, the GI50 in the experiment on UACC-257 was 4.83 µM (inactive); in the experiment on U-251, 7.46 µM (inactive).
For `Cc1c(C2Cc3ccccc3N2)c2ccccc2n1C` (stereo not drawn), the GI50 in the experiment on SK-OV-3 was > 100 µM (inactive); in the experiment with HL-60, > 100 µM (inactive); in the experiment on CCRF-CEM, > 100 µM (inactive); with NCI-H460 it was 79.1 µM (inactive); with NCI-H226, > 100 µM (inactive); in the experiment with A549, > 100 µM (inactive). For the same compound, the GI50 in the experiment with 786-0, in the experiment with K562, in the experiment on OVCAR-3, in the experiment with SN12C, in the experiment on OVCAR-4 and in the experiment with NCI-H522 was > 100 µM (inactive) each time. For the same compound, the GI50 in the experiment with EKVX, in the experiment on UACC-257 and with U-251 was > 100 µM (inactive) each time.
On to `O=C1CCC(=O)N2CCCCN12`, for which the GI50 with SK-OV-3, in the experiment on HL-60, in the experiment on CCRF-CEM, in the experiment with NCI-H460, with NCI-H226 and in the experiment with A549 was > 100 µM (inactive) in each case. Also, the GI50 in the experiment on 786-0, with K562, in the experiment on OVCAR-3, in the experiment with SN12C, with OVCAR-4 and in the experiment on NCI-H522 was > 100 µM (inactive) in each case. Moreover, the GI50 in the experiment on EKVX, in the experiment with UACC-257 and in the experiment on U-251 was > 100 µM (inactive) each time.
Turning to `CCCc1n[nH]c(CCC(=O)N(Cc2ccccc2)Cc2ccccc2)c1CC`, the GI50 with SK-OV-3, in the experiment with RPMI-8226, with CCRF-CEM, with NCI-H460, with NCI-H226 and in the experiment on A549 was > 100 µM (inactive) in each case. Moreover, the GI50 in the experiment with 786-0, with K562, in the experiment with OVCAR-3, in the experiment on SN12C, with OVCAR-4 and with NCI-H522 was > 100 µM (inactive) in each case. In addition, the GI50 in the experiment on EKVX and in the experiment on UACC-257 was > 100 µM (inactive) each time.
Take `NC(N)NCCCc1cn2c(n1)C1CCCN1C(=O)C2Cc1ccccc1` (stereo not drawn): the GI50 with SK-OV-3, with RPMI-8226, in the experiment with CCRF-CEM, with NCI-H460, in the experiment with NCI-H226 and in the experiment on A549 was > 100 µM (inactive) in each case. Also, the GI50 in the experiment on 786-0, in the experiment with K562, in the experiment with OVCAR-3, in the experiment on SN12C, in the experiment with OVCAR-4 and in the experiment on NCI-H522 was > 100 µM (inactive) each time. Further, the GI50 in the experiment with EKVX, in the experiment with UACC-257 and in the experiment on U-251 was > 100 µM (inactive) in each case.
Take `CC(=O)O[C@H]1CC[C@@]2(C)C(=CC[C@H]3C(CC#N)[C@@](C)(C#N)CCC32)C1` (stereo partly drawn): the GI50 with SK-OV-3, in the experiment with HL-60, in the experiment on RPMI-8226, with CCRF-CEM, with NCI-H460 and in the experiment on NCI-H226 was > 100 µM (inactive) each time. In addition, the GI50 in the experiment on A549, in the experiment with 786-0, with K562, in the experiment on OVCAR-3, with SN12C and in the experiment on OVCAR-4 was > 100 µM (inactive) each time. For the same compound, the GI50 was > 100 µM (inactive) in the experiment with EKVX, > 100 µM (inactive) with UACC-257 and 74 µM (inactive) with U-251.
For the compound `COc1ccc(/C=C/c2cc(OC)c(OC(C)=O)c(OC)c2)cc1`, the GI50 was 37.3 µM (inactive) in the experiment with SK-OV-3; 31.8 µM (inactive) in the experiment with RPMI-8226; 30.8 µM (inactive) in the experiment on CCRF-CEM; 22.1 µM (inactive) in the experiment with NCI-H460; 21.6 µM (inactive) with NCI-H226; 24.8 µM (inactive) with A549. Besides, the GI50 in the experiment with 786-0 was 33.7 µM (inactive); in the experiment on OVCAR-3, 41.2 µM (inactive); in the experiment with SN12C, 24.3 µM (inactive); with OVCAR-4, 45.9 µM (inactive); in the experiment on NCI-H522 it was 19.5 µM (inactive); in the experiment with EKVX it was 28.1 µM (inactive). The GI50 was 20.7 µM (inactive) in the experiment with UACC-257 and 17.5 µM (inactive) with U-251.

Source of the values: ChEMBL document CHEMBL1201862, “PubChem BioAssay data set” (2004).
